# Assay results as given in publication PMC5137160, “Optical imaging of MMP-12 active form in inflammation and aneurysm” (Scientific Reports, 2016).
# Columns and labels:
# [1] = Stability in mouse blood by HPLC; type: in vitro ADME; details: 4 hours at 37 °C
# Protocol: Probes 1, 2, 3 and control probe 4 were synthesized from phosphinic building blocks whose synthesis was previously reported. Briefly, the elongation of the peptide’s sequence as well as the incorporation of the phosphinic building blocks were performed on solid support using a standard Fmoc strategy. After cleavage from the support, pseudo peptide intermediates were purified and subsequently engaged in a coupling reaction with the appropriate dye-NHS ester. The identity and purity of each optical probe were confirmed by analytical HPLC, mass spectrometry analysis and NMR (for detailed protocols and analytical data see supplemental information). The stability of each probe was confirmed in phosphate buffered saline (PBS). Moreover, the stability of probe 3 and its control, probe 4 were evaluated by HPLC in mouse blood over a period of 4 hours at 37 °C.
# hMMP-14 = target: T1, hMMP-14 (Homo sapiens, UniProt P50281); test: MMP inhibition assay (Ki); type: biochemical
# T1 construct: purchased R&D Systems (Minneapolis, MN)
# Protocol: (§1) Human MMP-8, -9, -12 and -13 were produced in the laboratory. Other MMPs were purchased from R&D Systems (Minneapolis, MN). MMP inhibition assays were carried out as previously described. Pro-MMPs were pre-activated by p-aminophenylmercuric acetate following the method described by R&D Systems. Titration experiments were carried out to determine active enzyme concentration for each MMP prior to the assay. For each probe, the percentage of inhibition was determined from five different concentrations in triplicates, chosen to reach a range of 20–80% inhibition. Ki values were determined using the method proposed by Horovitz and Leviski[45].
# hMMP-10 = target: T2, hMMP-10 (Homo sapiens, UniProt P09238); test: MMP inhibition assay (Ki); type: biochemical
# T2 construct: purchased R&D Systems (Minneapolis, MN)
# T2 sequence (P09238 99-476): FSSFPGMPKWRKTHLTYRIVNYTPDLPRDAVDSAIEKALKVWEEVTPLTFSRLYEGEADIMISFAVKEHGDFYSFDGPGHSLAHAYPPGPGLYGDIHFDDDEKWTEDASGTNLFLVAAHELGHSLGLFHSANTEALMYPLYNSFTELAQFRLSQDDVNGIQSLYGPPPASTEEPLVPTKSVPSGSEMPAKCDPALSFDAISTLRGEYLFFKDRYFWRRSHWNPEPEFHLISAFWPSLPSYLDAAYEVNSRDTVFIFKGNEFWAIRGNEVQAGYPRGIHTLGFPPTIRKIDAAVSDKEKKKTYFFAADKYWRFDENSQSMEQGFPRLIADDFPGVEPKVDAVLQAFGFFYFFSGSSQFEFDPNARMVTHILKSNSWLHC
# Protocol: as §1
# hMMP-2 = target: T3, hMMP-2 (Homo sapiens, UniProt P08253); test: MMP inhibition assay (Ki); type: biochemical
# T3 construct: purchased R&D Systems (Minneapolis, MN)
# T3 sequence (P08253 110-660): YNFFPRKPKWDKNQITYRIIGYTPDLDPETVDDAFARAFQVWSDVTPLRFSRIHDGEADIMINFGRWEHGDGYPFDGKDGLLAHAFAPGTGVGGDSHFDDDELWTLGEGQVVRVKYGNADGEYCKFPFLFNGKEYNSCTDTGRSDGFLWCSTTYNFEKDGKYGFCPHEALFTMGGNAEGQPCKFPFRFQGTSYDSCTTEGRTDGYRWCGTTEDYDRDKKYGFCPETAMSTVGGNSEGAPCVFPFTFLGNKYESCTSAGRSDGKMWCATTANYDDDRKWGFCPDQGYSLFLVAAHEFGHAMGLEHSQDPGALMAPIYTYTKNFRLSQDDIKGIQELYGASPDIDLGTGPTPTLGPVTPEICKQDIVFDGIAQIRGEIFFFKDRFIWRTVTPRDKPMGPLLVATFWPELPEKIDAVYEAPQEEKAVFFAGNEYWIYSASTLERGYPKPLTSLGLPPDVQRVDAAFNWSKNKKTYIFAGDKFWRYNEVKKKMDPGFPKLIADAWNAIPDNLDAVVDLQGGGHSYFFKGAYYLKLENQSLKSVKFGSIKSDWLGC
# Protocol: as §1
# hMMP-13 = target: T4, hMMP-13 (Homo sapiens, UniProt P45452); test: MMP inhibition assay (Ki); type: biochemical
# T4 construct: made in house
# Protocol: as §1
# hMMP-3 = target: T5, hMMP-3 (Homo sapiens, UniProt P08254); test: MMP inhibition assay (Ki); type: biochemical
# T5 construct: purchased R&D Systems (Minneapolis, MN)
# T5 sequence (P08254 100-477): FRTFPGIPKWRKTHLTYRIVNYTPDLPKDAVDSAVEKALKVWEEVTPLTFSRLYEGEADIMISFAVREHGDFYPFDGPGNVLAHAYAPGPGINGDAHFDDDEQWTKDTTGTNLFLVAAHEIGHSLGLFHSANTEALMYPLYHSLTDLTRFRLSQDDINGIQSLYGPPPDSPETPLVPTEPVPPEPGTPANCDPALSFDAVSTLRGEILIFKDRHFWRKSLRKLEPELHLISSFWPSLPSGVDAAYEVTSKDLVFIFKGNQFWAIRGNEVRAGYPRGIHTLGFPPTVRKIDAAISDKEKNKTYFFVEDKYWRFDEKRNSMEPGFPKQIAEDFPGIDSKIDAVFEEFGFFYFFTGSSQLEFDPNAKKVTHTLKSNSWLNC
# Protocol: as §1
# hMMP-1 = target: T6, hMMP-1 (Homo sapiens, UniProt P03956); test: MMP inhibition assay (Ki); type: biochemical
# T6 construct: purchased R&D Systems (Minneapolis, MN)
# T6 sequence (P03956 100-469): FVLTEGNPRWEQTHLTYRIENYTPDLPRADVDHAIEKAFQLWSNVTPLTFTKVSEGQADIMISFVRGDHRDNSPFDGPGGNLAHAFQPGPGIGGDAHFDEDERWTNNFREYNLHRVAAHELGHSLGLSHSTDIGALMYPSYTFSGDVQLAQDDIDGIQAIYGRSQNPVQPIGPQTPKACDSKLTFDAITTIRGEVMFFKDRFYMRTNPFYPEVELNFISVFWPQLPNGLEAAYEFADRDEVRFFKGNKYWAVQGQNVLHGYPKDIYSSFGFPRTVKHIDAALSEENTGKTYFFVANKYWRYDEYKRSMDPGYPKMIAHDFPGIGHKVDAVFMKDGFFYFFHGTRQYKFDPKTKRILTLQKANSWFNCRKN
# Protocol: as §1
# hMMP-9 = target: T7, hMMP-9 (Homo sapiens, UniProt P14780); test: MMP inhibition assay (Ki); type: biochemical
# T7 construct: made in house
# T7 sequence (P14780 94-707): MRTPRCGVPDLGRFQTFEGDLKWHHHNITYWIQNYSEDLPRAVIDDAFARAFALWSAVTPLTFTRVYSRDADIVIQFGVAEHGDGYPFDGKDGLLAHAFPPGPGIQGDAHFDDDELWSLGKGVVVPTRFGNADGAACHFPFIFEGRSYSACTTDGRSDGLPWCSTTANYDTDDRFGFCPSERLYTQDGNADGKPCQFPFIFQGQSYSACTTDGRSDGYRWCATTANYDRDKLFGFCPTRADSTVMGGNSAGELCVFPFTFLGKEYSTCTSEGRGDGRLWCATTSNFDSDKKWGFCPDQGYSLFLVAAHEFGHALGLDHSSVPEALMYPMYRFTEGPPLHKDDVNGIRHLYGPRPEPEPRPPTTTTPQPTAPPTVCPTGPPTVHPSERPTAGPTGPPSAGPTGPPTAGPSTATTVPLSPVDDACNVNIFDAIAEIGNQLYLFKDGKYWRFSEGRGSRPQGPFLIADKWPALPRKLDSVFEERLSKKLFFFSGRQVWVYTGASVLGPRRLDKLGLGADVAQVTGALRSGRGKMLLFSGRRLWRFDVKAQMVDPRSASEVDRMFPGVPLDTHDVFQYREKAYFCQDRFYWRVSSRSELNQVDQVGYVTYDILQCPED
# Protocol: as §1
# hMMP-7 = target: T8, hMMP-7 (Homo sapiens, UniProt P09237); test: MMP inhibition assay (Ki); type: biochemical
# T8 construct: purchased R&D Systems (Minneapolis, MN)
# T8 sequence (P09237 95-267): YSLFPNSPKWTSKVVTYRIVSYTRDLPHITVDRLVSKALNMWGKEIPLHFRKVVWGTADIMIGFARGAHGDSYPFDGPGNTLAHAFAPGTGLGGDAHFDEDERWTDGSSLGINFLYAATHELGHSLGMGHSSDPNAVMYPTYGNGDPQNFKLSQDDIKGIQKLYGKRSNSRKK
# Protocol: as §1
# hMMP-8 = target: T9, hMMP-8 (Homo sapiens, UniProt P22894); test: MMP inhibition assay (Ki); type: biochemical
# T9 construct: made in house
# T9 sequence (P22894 101-467): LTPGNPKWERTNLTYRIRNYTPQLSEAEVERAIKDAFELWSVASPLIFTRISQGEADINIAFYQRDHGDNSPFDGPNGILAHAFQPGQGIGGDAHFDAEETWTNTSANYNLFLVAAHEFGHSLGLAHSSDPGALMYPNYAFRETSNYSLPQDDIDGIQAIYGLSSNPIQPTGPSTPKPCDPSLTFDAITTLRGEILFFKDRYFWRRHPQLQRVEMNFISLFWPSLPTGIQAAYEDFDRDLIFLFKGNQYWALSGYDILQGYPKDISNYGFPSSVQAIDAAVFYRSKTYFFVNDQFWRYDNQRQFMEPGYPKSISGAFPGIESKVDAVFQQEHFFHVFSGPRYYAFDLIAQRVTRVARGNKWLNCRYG
# Protocol: as §1
# ADAMTS-5 = target: T10, ADAMTS-5 (Homo sapiens, UniProt Q9UNA0); test: Metalloprotease inhibition assay (Ki); type: biochemical
# T10 sequence (Q9UNA0 262-930): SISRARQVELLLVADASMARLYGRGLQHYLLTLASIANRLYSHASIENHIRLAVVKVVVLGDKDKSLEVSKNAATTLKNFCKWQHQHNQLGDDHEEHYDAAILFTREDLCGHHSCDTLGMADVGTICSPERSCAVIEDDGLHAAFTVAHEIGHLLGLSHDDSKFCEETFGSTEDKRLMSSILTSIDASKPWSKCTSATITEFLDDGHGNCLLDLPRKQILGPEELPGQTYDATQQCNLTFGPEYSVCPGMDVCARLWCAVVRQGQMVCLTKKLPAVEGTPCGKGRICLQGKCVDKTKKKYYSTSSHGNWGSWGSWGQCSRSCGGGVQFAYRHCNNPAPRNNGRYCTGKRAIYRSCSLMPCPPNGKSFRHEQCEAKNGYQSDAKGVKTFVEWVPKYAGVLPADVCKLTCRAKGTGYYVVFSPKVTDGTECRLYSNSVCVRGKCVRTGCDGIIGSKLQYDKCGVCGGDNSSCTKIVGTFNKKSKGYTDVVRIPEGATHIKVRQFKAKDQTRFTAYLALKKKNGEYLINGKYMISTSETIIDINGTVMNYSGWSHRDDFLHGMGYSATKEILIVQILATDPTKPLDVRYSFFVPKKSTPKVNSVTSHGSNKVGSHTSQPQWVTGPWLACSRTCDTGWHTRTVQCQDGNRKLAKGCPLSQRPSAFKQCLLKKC
# hMMP-12 = test: MMP inhibition assay (Ki); type: biochemical, human
# Protocol: as §1
# TACE = TACE (Homo sapiens, UniProt P78536); test: Metalloprotease inhibition assay (Ki); type: biochemical
# TACE, sequence (P78536 215-824): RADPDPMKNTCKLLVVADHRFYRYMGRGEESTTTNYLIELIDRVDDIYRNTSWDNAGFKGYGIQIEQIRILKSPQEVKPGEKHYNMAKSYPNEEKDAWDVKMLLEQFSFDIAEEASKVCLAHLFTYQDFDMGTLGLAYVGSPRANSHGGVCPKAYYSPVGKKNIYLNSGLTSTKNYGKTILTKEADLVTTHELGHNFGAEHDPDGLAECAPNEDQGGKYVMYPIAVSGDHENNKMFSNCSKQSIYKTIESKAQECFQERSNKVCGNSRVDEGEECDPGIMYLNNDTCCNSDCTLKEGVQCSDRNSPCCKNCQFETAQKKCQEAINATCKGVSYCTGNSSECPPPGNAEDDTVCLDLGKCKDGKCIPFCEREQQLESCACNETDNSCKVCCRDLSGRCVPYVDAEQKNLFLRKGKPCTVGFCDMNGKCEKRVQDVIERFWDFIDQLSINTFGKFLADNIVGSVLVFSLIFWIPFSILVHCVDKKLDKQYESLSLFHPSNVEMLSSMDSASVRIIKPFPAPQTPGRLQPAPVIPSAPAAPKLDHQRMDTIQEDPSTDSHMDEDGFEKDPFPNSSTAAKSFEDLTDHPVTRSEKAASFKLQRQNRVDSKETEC
Structure (SMILES),stability in mouse blood [1],Ki (hMMP-14) [µM],Ki (hMMP-10) [µM],Ki (hMMP-2) [µM],Ki (hMMP-13) [µM],Ki (hMMP-3) [µM],Ki (hMMP-1) [µM],Ki (hMMP-9) [µM],Ki (hMMP-7) [µM],Ki (hMMP-8) [µM],Ki (ADAMTS-5) [µM],Ki (hMMP-12) [µM],Ki (TACE) [µM],"difference in potency towards MMP-12, factor relative to probe 1 (hMMP-12; relative to probe 1)"
CC1(C)C(=CC=C2CCCC(C=CC3=[N+](CCC[N+](C)(C)C)c4ccc(S(=O)(=O)[O-])cc4C3(C)C)=C2Oc2ccc(CCC(=O)NCCCOCCOCCOCCCNC(=O)C(CCC(=O)[O-])NC(=O)C(CCC(=O)O)NC(=O)C(Cc3cc(-c4cccc(Oc5ccccc5)c4)no3)CP(=O)(O)c3ccc(Br)cc3)cc2)N(CCC[N+](C)(C)C)c2ccc(S(=O)(=O)[O-])cc21 (stereo not drawn) [probe 4],stable,7.86 ± 1.53,6.43 ± 1.67,> 12,7.73 ± 1.53,> 12,> 10,4.9 ± 1.3,9.8 ± 0.32,7.5 ± 0.73,> 10,4.04 ± 0.67,> 25,
CC1(C)C(/C=C/C2=C(Oc3ccc(CCC(=O)NCCCOCCOCCOCCCNC(=O)[C@H](CCC(=O)[O-])NC(=O)[C@H](CCC(=O)O)NC(=O)[C@H](Cc4cc(-c5ccc(-c6cccc(Cl)c6)cc5)no4)CP(=O)(O)c4ccc(Br)cc4)cc3)C(=C/C=C3/N(CCC[N+](C)(C)C)c4ccc(S(=O)(=O)[O-])cc4C3(C)C)/CCC2)=[N+](CCC[N+](C)(C)C)c2ccc(S(=O)(=O)[O-])cc21 [probe 3],fully stable,1.02 ± 0.069,0.136 ± 0.022,2.13 ± 0.172,0.124 ± 0.007,0.367 ± 0.061,> 10,4.79 ± 0.535,4.99 ± 0.151,3.31 ± 0.348,> 10,0.0034 ± 0.0003,4.61 ± 0.653,4
